Consider 3 compounds from ChEMBL document CHEMBL3627608, “Crystal structures of human RIP2 kinase catalytic domain complexed with ATP-competitive inhibitors: Foundations for understanding inhibitor selectivity” (Bioorg Med Chem, 2015).

Test [1] has as its target CDK9/Cyclin K (Homo sapiens) (UniProt P50750+O75909). Description: Inhibition of CDK9/cyclin K (unknown origin) at 10 uM after 120 mins P33 radiolabeled kinase activity assay. The class given is protein-complex assay.
Test [2] addresses T1, Serine/threonine-protein kinase Nek11 (Homo sapiens) (UniProt Q8NG66).
T1 sequence (whole entry): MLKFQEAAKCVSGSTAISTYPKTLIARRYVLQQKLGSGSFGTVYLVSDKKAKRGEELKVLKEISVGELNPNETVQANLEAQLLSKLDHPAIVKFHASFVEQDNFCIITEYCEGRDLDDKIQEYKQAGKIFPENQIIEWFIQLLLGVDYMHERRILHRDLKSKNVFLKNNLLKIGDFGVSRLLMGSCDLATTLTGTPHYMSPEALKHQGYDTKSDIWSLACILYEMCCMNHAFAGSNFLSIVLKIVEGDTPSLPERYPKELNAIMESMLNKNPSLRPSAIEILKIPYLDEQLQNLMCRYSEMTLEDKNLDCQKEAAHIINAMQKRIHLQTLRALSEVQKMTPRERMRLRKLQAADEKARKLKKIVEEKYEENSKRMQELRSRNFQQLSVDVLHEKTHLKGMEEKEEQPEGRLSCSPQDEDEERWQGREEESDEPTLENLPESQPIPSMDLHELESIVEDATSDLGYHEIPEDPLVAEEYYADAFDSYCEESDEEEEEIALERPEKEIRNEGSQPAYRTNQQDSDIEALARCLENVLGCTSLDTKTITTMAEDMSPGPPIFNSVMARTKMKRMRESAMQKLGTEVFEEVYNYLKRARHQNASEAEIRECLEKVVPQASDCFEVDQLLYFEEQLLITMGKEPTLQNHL
The test is described as follows: Inhibition of NEK11 (unknown origin) at 10 uM after 120 mins P33 radiolabeled kinase activity assay.

Test [3] addresses Glycogen synthase kinase-3 beta (Homo sapiens) (UniProt P49841). Description: Inhibition of GSK3beta (unknown origin) at 10 uM after 120 mins P33 radiolabeled kinase activity assay.
Test [4] concerns the target Tyrosine-protein kinase JAK2 (Homo sapiens) (UniProt O60674). The test is described as follows: Inhibition of JAK2 (unknown origin) at 10 uM after 120 mins P33 radiolabeled kinase activity assay.
Test [5] addresses SRSF protein kinase 1 (Homo sapiens) (UniProt Q96SB4). The test is described as follows: Inhibition of SRPK1 (unknown origin) at 10 uM after 120 mins P33 radiolabeled kinase activity assay.
In test [6] the target is Tyrosine-protein kinase Fer (Homo sapiens) (UniProt P16591). Description: Inhibition of FER (unknown origin) at 10 uM after 120 mins P33 radiolabeled kinase activity assay.
Test [7] addresses TRAF2 and NCK-interacting protein kinase (Homo sapiens) (UniProt Q9UKE5). Description: Inhibition of TNIK (unknown origin) at 10 uM after 120 mins P33 radiolabeled kinase activity assay.
Test [8] addresses T2, Tyrosine-protein kinase Tec (Homo sapiens) (UniProt P42680).
T2 sequence (whole entry): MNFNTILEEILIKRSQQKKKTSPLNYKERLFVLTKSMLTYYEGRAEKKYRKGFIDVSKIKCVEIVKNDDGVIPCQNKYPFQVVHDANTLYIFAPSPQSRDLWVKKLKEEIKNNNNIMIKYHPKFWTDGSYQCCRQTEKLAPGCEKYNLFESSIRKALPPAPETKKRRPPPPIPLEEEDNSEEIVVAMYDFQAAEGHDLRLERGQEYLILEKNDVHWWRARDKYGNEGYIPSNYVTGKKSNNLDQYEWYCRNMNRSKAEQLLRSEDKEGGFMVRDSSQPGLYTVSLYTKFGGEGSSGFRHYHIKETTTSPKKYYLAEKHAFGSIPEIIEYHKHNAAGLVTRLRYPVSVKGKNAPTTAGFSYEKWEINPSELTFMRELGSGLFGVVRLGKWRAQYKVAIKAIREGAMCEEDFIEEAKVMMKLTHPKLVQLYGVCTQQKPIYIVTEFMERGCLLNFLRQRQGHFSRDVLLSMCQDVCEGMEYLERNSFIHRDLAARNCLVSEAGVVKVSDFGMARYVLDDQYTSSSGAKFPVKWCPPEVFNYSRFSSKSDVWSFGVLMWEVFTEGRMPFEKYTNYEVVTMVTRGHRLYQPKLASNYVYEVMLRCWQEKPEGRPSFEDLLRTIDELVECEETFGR
Description: Inhibition of TEC (unknown origin) at 10 uM after 120 mins P33 radiolabeled kinase activity assay.

Test [9] addresses Calcium/calmodulin-dependent protein kinase type 1D (Homo sapiens) (UniProt Q8IU85). Description: Inhibition of CAMK1delta (unknown origin) at 10 uM after 120 mins P33 radiolabeled kinase activity assay.
Test [10] concerns the target Ribosomal protein S6 kinase alpha-5 (Homo sapiens) (UniProt O75582). The test is described as follows: Inhibition of MSK1 (unknown origin) at 10 uM after 120 mins P33 radiolabeled kinase activity assay.
The target of test [11] is Cyclin-dependent kinase 7/ cyclin H (Homo sapiens) (UniProt P51946+P50613). Description: Inhibition of CDK7/cyclin H (unknown origin) at 10 uM after 120 mins P33 radiolabeled kinase activity assay. The class given is protein-complex assay.
For test [12], the target named is T3, Serine/threonine-protein kinase TBK1 (Homo sapiens) (UniProt Q9UHD2).
T3 sequence (whole entry): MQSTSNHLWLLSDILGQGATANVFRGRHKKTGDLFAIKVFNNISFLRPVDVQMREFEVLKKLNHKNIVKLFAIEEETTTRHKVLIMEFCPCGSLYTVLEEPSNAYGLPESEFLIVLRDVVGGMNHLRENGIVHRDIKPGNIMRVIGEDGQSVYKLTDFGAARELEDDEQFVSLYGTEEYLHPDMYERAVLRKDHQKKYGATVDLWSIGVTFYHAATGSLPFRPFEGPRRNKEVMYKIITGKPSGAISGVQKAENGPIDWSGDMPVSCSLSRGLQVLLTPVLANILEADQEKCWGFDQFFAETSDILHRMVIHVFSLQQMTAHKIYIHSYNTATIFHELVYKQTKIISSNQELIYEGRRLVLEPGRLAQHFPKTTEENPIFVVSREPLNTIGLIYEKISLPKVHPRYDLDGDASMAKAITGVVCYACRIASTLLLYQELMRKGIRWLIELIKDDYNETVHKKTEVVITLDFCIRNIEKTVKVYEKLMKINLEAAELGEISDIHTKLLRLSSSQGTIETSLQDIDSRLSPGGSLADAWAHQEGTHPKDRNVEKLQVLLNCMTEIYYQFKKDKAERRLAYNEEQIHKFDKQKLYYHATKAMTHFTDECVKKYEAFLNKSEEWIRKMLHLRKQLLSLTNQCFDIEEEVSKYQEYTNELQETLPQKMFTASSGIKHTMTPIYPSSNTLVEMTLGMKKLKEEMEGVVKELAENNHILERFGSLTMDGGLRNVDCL
The test is described as follows: Inhibition of TBK1 (unknown origin) at 10 uM after 120 mins P33 radiolabeled kinase activity assay.

In test [13] the target is Mitogen-activated protein kinase 9 (Homo sapiens) (UniProt P45984). The test is described as follows: Inhibition of JNK2 (unknown origin) at 10 uM after 120 mins P33 radiolabeled kinase activity assay.
Test [14] addresses Inactive tyrosine-protein kinase PEAK1 (Homo sapiens) (UniProt Q9H792). The test is described as follows: Inhibition of PEAK1 (unknown origin) at 10 uM after 120 mins P33 radiolabeled kinase activity assay.

Chain of Tyrosine-protein kinase Fer (Homo sapiens) (P16591 whole entry, looked up): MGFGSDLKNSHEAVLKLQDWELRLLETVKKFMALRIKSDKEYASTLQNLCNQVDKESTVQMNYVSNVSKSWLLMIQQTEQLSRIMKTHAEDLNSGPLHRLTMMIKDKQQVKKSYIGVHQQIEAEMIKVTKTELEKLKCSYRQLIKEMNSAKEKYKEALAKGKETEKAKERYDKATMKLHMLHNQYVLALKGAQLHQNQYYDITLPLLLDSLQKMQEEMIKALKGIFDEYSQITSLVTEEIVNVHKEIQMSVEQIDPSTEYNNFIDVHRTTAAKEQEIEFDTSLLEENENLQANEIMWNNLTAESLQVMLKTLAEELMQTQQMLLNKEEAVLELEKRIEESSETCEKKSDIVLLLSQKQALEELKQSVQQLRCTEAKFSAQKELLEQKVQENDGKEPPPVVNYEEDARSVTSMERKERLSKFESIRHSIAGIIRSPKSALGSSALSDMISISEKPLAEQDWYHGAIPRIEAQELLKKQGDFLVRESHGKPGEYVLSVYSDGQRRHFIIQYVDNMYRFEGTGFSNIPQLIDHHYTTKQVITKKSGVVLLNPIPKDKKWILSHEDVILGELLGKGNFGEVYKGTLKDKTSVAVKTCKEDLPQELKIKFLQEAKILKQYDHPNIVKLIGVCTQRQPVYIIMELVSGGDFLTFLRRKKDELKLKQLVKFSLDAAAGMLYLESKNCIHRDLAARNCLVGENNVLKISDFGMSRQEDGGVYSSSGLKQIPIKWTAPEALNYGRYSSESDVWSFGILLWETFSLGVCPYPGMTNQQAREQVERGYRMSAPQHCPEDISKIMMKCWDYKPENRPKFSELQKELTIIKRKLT
Chain of SRSF protein kinase 1 (Homo sapiens) (Q96SB4 whole entry): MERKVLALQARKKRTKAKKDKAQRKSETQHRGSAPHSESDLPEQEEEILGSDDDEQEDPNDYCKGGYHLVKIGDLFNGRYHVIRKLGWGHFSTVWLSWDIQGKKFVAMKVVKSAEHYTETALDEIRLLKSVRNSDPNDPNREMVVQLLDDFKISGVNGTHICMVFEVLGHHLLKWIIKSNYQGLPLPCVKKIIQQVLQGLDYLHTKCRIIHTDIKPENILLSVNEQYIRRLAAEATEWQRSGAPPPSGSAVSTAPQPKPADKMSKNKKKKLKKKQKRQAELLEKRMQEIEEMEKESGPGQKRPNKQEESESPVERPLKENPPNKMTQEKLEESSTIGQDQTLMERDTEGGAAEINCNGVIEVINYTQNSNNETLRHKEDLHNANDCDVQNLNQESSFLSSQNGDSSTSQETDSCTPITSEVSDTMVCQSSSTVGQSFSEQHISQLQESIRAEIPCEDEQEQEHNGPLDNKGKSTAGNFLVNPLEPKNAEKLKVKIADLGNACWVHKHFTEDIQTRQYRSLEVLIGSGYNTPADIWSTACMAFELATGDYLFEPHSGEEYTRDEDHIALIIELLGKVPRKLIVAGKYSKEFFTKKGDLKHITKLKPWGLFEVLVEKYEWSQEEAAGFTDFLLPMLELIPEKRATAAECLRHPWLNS
Chain of Mitogen-activated protein kinase 9 (Homo sapiens) (P45984 whole entry, looked up): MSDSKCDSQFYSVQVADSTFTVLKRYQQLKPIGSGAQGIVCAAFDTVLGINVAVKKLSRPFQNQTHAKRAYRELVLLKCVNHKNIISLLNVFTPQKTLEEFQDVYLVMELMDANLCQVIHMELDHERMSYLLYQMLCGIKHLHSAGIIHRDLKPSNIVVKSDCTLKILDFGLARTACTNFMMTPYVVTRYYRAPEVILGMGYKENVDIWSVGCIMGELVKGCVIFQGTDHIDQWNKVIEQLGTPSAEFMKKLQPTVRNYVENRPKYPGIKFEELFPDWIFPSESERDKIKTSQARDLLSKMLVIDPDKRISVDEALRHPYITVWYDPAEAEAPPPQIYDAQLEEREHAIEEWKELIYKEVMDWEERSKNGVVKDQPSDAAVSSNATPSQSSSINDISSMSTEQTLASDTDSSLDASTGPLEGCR
Chain of Ribosomal protein S6 kinase alpha-5 (Homo sapiens) (O75582 whole entry, looked up): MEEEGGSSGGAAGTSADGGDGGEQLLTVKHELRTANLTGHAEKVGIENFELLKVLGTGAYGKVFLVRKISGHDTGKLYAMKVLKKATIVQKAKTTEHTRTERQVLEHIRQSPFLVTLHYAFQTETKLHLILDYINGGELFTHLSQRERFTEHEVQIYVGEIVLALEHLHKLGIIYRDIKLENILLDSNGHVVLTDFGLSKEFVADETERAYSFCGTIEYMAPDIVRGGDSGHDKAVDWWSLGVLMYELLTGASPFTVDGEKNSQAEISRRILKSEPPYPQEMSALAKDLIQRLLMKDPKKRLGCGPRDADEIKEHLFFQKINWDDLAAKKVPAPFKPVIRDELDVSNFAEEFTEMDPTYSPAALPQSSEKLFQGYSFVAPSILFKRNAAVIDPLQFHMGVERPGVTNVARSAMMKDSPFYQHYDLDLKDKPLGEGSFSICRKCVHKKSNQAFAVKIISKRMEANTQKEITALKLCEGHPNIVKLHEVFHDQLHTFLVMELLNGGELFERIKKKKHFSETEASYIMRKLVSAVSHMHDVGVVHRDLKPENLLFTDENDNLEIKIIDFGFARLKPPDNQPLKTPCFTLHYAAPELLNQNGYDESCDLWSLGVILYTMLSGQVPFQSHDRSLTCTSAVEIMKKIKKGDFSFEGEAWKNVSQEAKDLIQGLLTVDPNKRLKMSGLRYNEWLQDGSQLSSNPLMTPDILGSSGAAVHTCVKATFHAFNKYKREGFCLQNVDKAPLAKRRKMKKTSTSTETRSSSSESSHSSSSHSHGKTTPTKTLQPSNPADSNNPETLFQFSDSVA
Chain of Tyrosine-protein kinase JAK2 (Homo sapiens) (O60674 whole entry): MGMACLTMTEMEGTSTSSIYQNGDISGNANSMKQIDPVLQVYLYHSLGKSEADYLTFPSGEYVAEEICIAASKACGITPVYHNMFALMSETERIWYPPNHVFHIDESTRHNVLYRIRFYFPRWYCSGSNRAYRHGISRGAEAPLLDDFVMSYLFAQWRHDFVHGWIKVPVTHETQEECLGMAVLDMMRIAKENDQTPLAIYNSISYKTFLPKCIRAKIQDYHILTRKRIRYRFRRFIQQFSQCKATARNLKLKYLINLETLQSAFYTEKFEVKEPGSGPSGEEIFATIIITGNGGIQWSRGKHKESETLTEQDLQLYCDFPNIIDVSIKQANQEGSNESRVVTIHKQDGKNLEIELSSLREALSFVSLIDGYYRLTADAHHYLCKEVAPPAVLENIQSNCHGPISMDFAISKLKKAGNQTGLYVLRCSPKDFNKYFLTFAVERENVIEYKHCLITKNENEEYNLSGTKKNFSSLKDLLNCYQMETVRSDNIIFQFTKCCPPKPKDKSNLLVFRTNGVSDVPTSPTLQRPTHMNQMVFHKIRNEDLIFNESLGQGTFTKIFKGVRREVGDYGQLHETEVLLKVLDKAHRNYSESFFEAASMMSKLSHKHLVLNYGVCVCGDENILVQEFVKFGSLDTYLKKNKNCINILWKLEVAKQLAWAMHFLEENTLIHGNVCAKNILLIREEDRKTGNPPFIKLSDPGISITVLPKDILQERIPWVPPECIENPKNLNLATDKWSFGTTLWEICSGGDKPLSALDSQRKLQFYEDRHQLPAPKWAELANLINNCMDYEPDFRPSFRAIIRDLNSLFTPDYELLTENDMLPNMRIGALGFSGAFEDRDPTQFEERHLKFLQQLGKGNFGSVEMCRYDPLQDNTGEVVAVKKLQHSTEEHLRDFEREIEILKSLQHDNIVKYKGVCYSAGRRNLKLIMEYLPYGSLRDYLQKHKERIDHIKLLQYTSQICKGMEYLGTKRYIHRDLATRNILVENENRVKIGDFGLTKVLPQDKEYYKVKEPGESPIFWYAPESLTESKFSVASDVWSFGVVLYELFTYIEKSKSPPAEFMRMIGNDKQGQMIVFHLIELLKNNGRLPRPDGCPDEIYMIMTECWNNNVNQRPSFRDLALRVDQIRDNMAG
Chain of Calcium/calmodulin-dependent protein kinase type 1D (Homo sapiens) (Q8IU85 whole entry, looked up): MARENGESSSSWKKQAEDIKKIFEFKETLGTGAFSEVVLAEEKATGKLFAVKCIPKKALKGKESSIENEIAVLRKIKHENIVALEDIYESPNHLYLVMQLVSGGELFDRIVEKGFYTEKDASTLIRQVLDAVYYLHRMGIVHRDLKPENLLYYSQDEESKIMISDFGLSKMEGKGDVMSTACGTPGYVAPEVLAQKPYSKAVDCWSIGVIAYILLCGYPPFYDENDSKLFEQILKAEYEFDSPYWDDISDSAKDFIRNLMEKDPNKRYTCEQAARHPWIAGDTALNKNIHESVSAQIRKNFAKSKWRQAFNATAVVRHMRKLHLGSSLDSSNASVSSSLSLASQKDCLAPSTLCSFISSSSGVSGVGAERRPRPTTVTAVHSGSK
Chain of Glycogen synthase kinase-3 beta (Homo sapiens) (P49841 whole entry, looked up): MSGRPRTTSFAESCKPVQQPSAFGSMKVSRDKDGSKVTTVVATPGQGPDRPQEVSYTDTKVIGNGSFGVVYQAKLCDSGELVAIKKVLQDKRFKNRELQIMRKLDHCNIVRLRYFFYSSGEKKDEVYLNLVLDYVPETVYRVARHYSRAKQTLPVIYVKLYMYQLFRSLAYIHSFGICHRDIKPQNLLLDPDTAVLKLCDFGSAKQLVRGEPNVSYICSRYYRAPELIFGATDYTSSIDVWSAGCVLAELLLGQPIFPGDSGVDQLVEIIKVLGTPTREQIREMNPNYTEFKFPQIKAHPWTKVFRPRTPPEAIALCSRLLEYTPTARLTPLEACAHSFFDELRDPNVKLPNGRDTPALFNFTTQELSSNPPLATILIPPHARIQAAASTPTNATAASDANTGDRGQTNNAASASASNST

For orientation: inhibition means the drop in the measured response relative to a control, in per cent. `CS(=O)(=O)c1cccc(Nc2nccc(-c3sc(N4CCOCC4)nc3-c3cccc(NS(=O)(=O)c4c(F)cccc4F)c3)n2)c1`: the inhibition in [1] is 6.34%; in [2] it was 89.4%; in test [3], 98.9%; in test [4], 12%; in test [5] it was 18.5%; in test [6], 65.2%. Also, the inhibition in test [7] was found to be 82.6%; in [8], 89.2%; in [9] it was 76.3%; in test [10], 5.17%; in test [11], 16.1%; in test [12] it was 55.4%. In addition, the results for the inhibition in [13] and in test [14] were 13.5% and 100%, respectively.

On to `CC(C)(C)c1cc(NC(=O)Nc2ccc(Oc3ccncc3)cc2)no1`, for which the inhibition was 37% in [1]; 24.4% in test [2]; 34.9% in test [3]; -0.98% in test [4]; 59.1% in test [5]; 19.9% in test [6]. Moreover, the inhibition is 93.9% in test [7]; 3.88% in test [8]; 8.06% in [9]; 49.5% in [10]; 0.59% in [11]; 4.25% in [12]. For the same compound, the inhibition amounted to 79.8% in test [13] and 86.1% in test [14].

For the compound `COCCNC(=O)c1ccc2c(c1)nc(-c1cnc(-c3ccc(Cl)cc3)[nH]1)n2CCOC`, the inhibition is 3.39% in test [1]; 24.4% in [2]; 16.9% in [3]; -2.57% in test [4]; 5.66% in [5]; 0.68% in [6]. Further, the inhibition turned out to be 48.4% in [7]; 5.53% in test [8]; 3.59% in test [9]; 7.07% in test [10]; 2.11% in test [11]; 5.84% in test [12]. The inhibition in [13] turned out to be 9.13%; in test [14], 82.8%.
